Experimental data reported in patent US12152048B2, “Nitroxoline prodrug and use thereof” (Jiangsu Yahong Meditech Co., Ltd., priority 2018, dated 2024).
In brackets after ≈: the same amount, converted by molar mass. Blank lines part the entries; values can stand above or below the compound they belong to.

Assays:
[1] = Determination of water solubility in phosphate buffer; format: physicochemical; conditions: for solubility at 24 h: thermodynamic from solid; for water solubility compared with nitroxoline: conclusion in words
Excerpt: Experimental instruments: 96-well filter plate (MSHVN4510 or MSHVN4550, Millipore); electronic digital display vortex mixer (MS3 Digital, IKA); multi-purpose vacuum pump (circulating water type, SHB-111, Zhengzhou Greatwall Scientific Industrial and Trade Co., Ltd.); balance (XSLT05, Mettler-Toledo); comfortable mixer (Eppendorf AG 22331 Hamburg, Eppendorf); liquid chromatography (LC-3AD, Shimadzu); mass spectrometry (API4000, Applied Biosystems, USA); sample injector (Anylytics AG System, CTC). Nitroxoline was prepared according to the method disclosed in Journal of Heterocyclic Chemistry, 1971, vol. 8, p 821 by Wisdom Pharmaceutical Co., Ltd.
Experimental process: 500 μL of phosphate buffer (pH=1.2, 4.5, 6.8 or 7.4) were added to a glass flask, to which 2 mg of compound powder were added. The flask was sealed with a cap and shaked on a mixer (VORTEX-GENIE2) at room temperature for 24 hours. The solution was subjected to vacuum filtration, and the filtrate was processed to determine the compound concentration by LC/MS/MS.

[2] = Stability in dog liver microsome; conditions: 2 μM, 37° C., 30 minutes
[3] = Stability in rat liver microsome; conditions: 2 μM, 37° C., 30 minutes
[4] = Stability in human liver microsome; conditions: 2 μM, 37° C., 30 minutes
Procedure: Experimental instruments: thermostatic shaker (SHA-B, Guohua Electric Appliance Co., Ltd.); centrifuge (5810R, Eppendorf); mass spectrometry (API4000, Applied Biosystems, USA); liquid chromatography (LC-30AD, Shimadzu); sample injector (CTC Analytics AG System, CTC).
Experimental process: 25 μg/mL alamethicin (Aldrich), 5 mM magnesium chloride and 0.5 mg/mL microsome (XENOTECH) were added to 100 mM phosphate buffer to obtain a coenzyme-free reaction solution. A portion of the coenzyme-free reaction solution was added with 1 mM reductive nicotinamide adenine dinucleotide phosphate (Aldrich) and 5 mM uridine diphosphate glucuronic acid (Aldrich) to obtain a coenzyme-containing reaction solution. The working solution of the compound of the present invention was added to the two reaction solutions so that the final concentration of the compound was 2 μM. Immediately after mixing well, 50 μL of the solution were taken out as the 0 minute sample, and 50 μL of the remaining sample were taken out after incubating at 37° C. for 30 minutes. All the samples taken out were immediately processed to precipitate protein, and centrifuged to obtain a supernate for the determination of the compound concentration by LC/MS/MS.

[5] = Stability in mouse liver microsome; format: in vitro ADME; conditions: 2 μM, 37° C., 30 minutes
[6] = aqueous buffer, phosphate buffer pH 7.4, room temperature
[7] = simulated gastric fluid, phosphate buffer pH 1.2, room temperature

solubility at 24 h [1, 6]: 105 µg/mL (≈ 344 µM)
Percentage of the compound remaining in mouse liver microsome ([5]; with coenzyme): 0.01%
Percentage of the compound remaining in mouse liver microsome ([5]; without coenzyme): 0.03%
Percentage of the compound remaining in dog liver microsome ([2]; with coenzyme): 0.01%
Percentage of the compound remaining in dog liver microsome ([2]; without coenzyme): 0.01%
Percentage of the compound remaining in rat liver microsome ([3]; with coenzyme): 0.01%
Percentage of the compound remaining in rat liver microsome ([3]; without coenzyme): 0.03%
Percentage of the compound remaining in human liver microsome ([4]; with coenzyme): 0.03%
Percentage of the compound remaining in human liver microsome ([4]; without coenzyme): 0.03%
Compound: CC(OC(=O)C(C)C)Oc1ccc([N+](=O)[O-])c2cccnc12 (stereo not drawn) [Compound 49, 1-(5-nitroquinolin-8-yloxy)ethyl isobutyrate]

solubility at 24 h [1, 6]: < 0.26 µg/mL
Compound: CCCCCCCCCC(=O)OCOc1ccc([N+](=O)[O-])c2cccnc12 [Compound 42, (5-nitroquinolin-8-yloxy)methyl decanoate]

Percentage of the compound remaining in mouse liver microsome ([5]; with coenzyme): 0.03%
Percentage of the compound remaining in mouse liver microsome ([5]; without coenzyme): 0.05%
Percentage of the compound remaining in dog liver microsome ([2]; with coenzyme): 0.03%
Percentage of the compound remaining in dog liver microsome ([2]; without coenzyme): 0.02%
Percentage of the compound remaining in rat liver microsome ([3]; with coenzyme): 0.06%
Percentage of the compound remaining in rat liver microsome ([3]; without coenzyme): 0.03%
Percentage of the compound remaining in human liver microsome ([4]; with coenzyme): 0.08%
Percentage of the compound remaining in human liver microsome ([4]; without coenzyme): 0.10%
Compound: CCC(=O)OC(C)Oc1ccc([N+](=O)[O-])c2cccnc12 (stereo not drawn) [Compound 48, 1-(5-nitroquinolin-8-yloxy)ethyl propionate]

solubility at 24 h [1, 6]: 19.9 µg/mL (≈ 68.9 µM)
Compound: O=C1CCCC(Oc2ccc([N+](=O)[O-])c3cccnc23)O1 (stereo not drawn) [Compound 44, 6-(5-nitroquinolin-8-yloxy)-tetrahydropyran-2-one]

solubility at 24 h [1, 6]: 21.2 µg/mL (≈ 70.3 µM)
Compound: Cc1oc(=O)oc1COc1ccc([N+](=O)[O-])c2cccnc12 [Compound 77, 4-methyl-5-((5-nitroquinolin-8-yloxy)methyl)-1,3-dioxol-2-one]

solubility at 24 h [1, 6]: 7.4 µg/mL (≈ 23.2 µM)
Compound: CCCCCC(=O)OCOc1ccc([N+](=O)[O-])c2cccnc12 [Compound 40, (5-nitroquinolin-8-yloxy)methyl hexanoate]

solubility at 24 h [1, 6]: 1040 µg/mL (≈ 2490 µM)
water solubility compared with nitroxoline [1]: increased by several times
Compound: CC(C)OC(=O)OCOP(=O)(O)OCOc1ccc([N+](=O)[O-])c2cccnc12 [Compound 72, (hydroxy((5-nitroquinolin-8-yloxy)methoxy)phosphoryloxy)methyl isopropyl carbonate]

solubility at 24 h [1, 6]: < 0.25 µg/mL
Compound: CCCCCCCCCCCC(=O)OCOc1ccc([N+](=O)[O-])c2cccnc12 [Compound 43, (5-nitroquinolin-8-yloxy)methyl dodecanoate]

solubility at 24 h [1, 6]: < 0.4 µg/mL
Compound: CCCCCCCC(=O)OCOc1ccc([N+](=O)[O-])c2cccnc12 [Compound 41, (5-nitroquinolin-8-yloxy)methyl octanoate]

More lines, now with the values behind:

Compound: O=C(OCOc1ccc([N+](=O)[O-])c2cccnc12)C1CCC1 [Compound 32, (5-nitroquinolin-8-yloxy)methyl cyclobutanecarboxylate]
solubility at 24 h [1, 6]: 28.4 µg/mL (≈ 94.1 µM)

Compound: CC(=O)N[C@@H](Cc1ccc(O)cc1)C(=O)N1CCC[C@H]1C(=O)OCOc1ccc([N+](=O)[O-])c2cccnc12 [Compound 28, (S)-(5-nitroquinolin-8-yloxy)methyl 1-((S)-2-acetamido-3-(4-hydroxyphenyl)propionyl)pyrrolidine-2-carboxylate]
solubility at 24 h [1, 6]: 25.1 µg/mL (≈ 48.1 µM)
solubility at 24 h [1, 7]: 342 µg/mL (≈ 654 µM)

Compound: O=C(CCCCC(=O)OCOc1ccc([N+](=O)[O-])c2cccnc12)OCOc1ccc([N+](=O)[O-])c2cccnc12 [Compound 46, bis(5-nitroquinolin-8-yloxy)-methyl adipate]
Percentage of the compound remaining in dog liver microsome ([2]; with coenzyme): 0.01%
Percentage of the compound remaining in dog liver microsome ([2]; without coenzyme): 0.03%
Percentage of the compound remaining in rat liver microsome ([3]; with coenzyme): 0.00%
Percentage of the compound remaining in rat liver microsome ([3]; without coenzyme): 0.05%
Percentage of the compound remaining in human liver microsome ([4]; with coenzyme): 0.00%
Percentage of the compound remaining in human liver microsome ([4]; without coenzyme): 0.06%

Compound: O=C(OCOc1ccc([N+](=O)[O-])c2cccnc12)[C@@H]1CCCN1C(=O)c1ccccn1 [Compound 25, (S)-(5-nitroquinolin-8-yloxy)methyl 1-pyridineformylpyrrolidine-2-carboxylate]
solubility at 24 h [1, 6]: 275 µg/mL (≈ 651 µM)

Compound: CC(C)C(=O)N1CCC[C@@H]1C(=O)OCOc1ccc([N+](=O)[O-])c2cccnc12 [Compound 23, (R)-(5-nitroquinolin-8-yloxy)methyl 1-isopropionylpyrrolidine-2-carboxylate]
solubility at 24 h [1, 6]: 818 µg/mL (≈ 2110 µM)
water solubility compared with nitroxoline [1]: increased by several times
solubility at 24 h [1, 7]: 945 µg/mL (≈ 2440 µM)

Compound: CC(C)(C)OC(=O)NCCCCCCC(=O)OCOc1ccc([N+](=O)[O-])c2cccnc12 [Compound 12, (5-nitroquinolin-8-yloxy)methyl 7-(tert-butoxycarbonylamino)heptanoate]
solubility at 24 h [1, 6]: 1.85 µg/mL (≈ 4.13 µM)
Percentage of the compound remaining in dog liver microsome ([2]; with coenzyme): 0.00%
Percentage of the compound remaining in dog liver microsome ([2]; without coenzyme): 0.02%
Percentage of the compound remaining in rat liver microsome ([3]; with coenzyme): 0.00%
Percentage of the compound remaining in rat liver microsome ([3]; without coenzyme): 0.02%
Percentage of the compound remaining in human liver microsome ([4]; with coenzyme): 0.00%
Percentage of the compound remaining in human liver microsome ([4]; without coenzyme): 0.03%

Compound: CC(C)(C)OC(=O)N[C@@H](Cc1ccccc1)C(=O)OCOc1ccc([N+](=O)[O-])c2cccnc12 [Compound 13, (S)-(5-Nitroquinolin-8-yloxy)methyl 2-(tert-butoxycarbonylamino)-3-phenylpropionate]
Percentage of the compound remaining in dog liver microsome ([2]; with coenzyme): 0.02%
Percentage of the compound remaining in dog liver microsome ([2]; without coenzyme): 0.02%
Percentage of the compound remaining in rat liver microsome ([3]; with coenzyme): 0.01%
Percentage of the compound remaining in rat liver microsome ([3]; without coenzyme): 0.02%
Percentage of the compound remaining in human liver microsome ([4]; with coenzyme): 0.01%
Percentage of the compound remaining in human liver microsome ([4]; without coenzyme): 0.02%

Compound: O=C(O)CCC(=O)OCOc1ccc([N+](=O)[O-])c2cccnc12 [Compound 8, 4-((5-nitroquinolin-8-yloxy)methoxy)-4-oxobutanoic acid]
solubility at 24 h [1, 6]: < 0.44 µg/mL

Compound: CC(=O)Oc1ccccc1C(=O)OCOc1ccc([N+](=O)[O-])c2cccnc12 [Compound 34, (5-nitroquinolin-8-yloxy)methyl 2-acetoxybenzoate]
solubility at 24 h [1, 6]: 6.67 µg/mL (≈ 17.4 µM)

Compound: COC(=O)CCCCC(=O)OCOc1ccc([N+](=O)[O-])c2cccnc12 [Compound 11, methyl (5-nitroquinolin-8-yloxy)methyl adipate]
solubility at 24 h [1, 6]: 66.9 µg/mL (≈ 185 µM)
Percentage of the compound remaining in dog liver microsome ([2]; with coenzyme): 0.01%
Percentage of the compound remaining in dog liver microsome ([2]; without coenzyme): 0.04%
Percentage of the compound remaining in rat liver microsome ([3]; with coenzyme): 0.05%
Percentage of the compound remaining in rat liver microsome ([3]; without coenzyme): 0.03%
Percentage of the compound remaining in human liver microsome ([4]; with coenzyme): 0.01%
Percentage of the compound remaining in human liver microsome ([4]; without coenzyme): 0.01%

Compound: CC(C)(C)C(=O)N1CCC[C@@H]1C(=O)OCOc1ccc([N+](=O)[O-])c2cccnc12 [Compound 24, (R)-(5-nitroquinolin-8-yloxy)methyl 1-pivaloylpyrrolidine-2-carboxylate]
solubility at 24 h [1, 6]: 73.6 µg/mL (≈ 183 µM)
solubility at 24 h [1, 7]: 942 µg/mL (≈ 2350 µM)

Compound: CC(=O)N[C@@H](CC(C)C)C(=O)NCC(=O)OCOc1ccc([N+](=O)[O-])c2cccnc12 [Compound 15, (S)-(5-nitroquinolin-8-yloxy)methyl 2-(2-acetamido-4-methylpentanamido)acetate]
solubility at 24 h [1, 6]: 205 µg/mL (≈ 475 µM)

Compound: O=C(COc1ccc(Cl)cc1Cl)OCOc1ccc([N+](=O)[O-])c2cccnc12 [Compound 35, (5-nitroquinolin-8-yloxy)methyl 2-(2,4-dichlorophenoxy)acetate]
solubility at 24 h [1, 6]: 0.04 µg/mL (≈ 0.0945 µM)

Compound: CSC[C@H](NC(C)=O)C(=O)OCOc1ccc([N+](=O)[O-])c2cccnc12 [Compound 16, (R)-(5-nitroquinolin-8-yloxy)methyl 2-acetamido-3-(methylthio)propionate]
solubility at 24 h [1, 6]: 254 µg/mL (≈ 669 µM)
solubility at 24 h [1, 7]: 443 µg/mL (≈ 1170 µM)

Compound: O=C(CN1CCOCC1)OCOc1ccc([N+](=O)[O-])c2cccnc12 [Compound 36, (5-nitroquinolin-8-yloxy)methyl 2-morpholinoacetate]
solubility at 24 h [1, 6]: 298 µg/mL (≈ 858 µM)

Compound: CC(=O)N[C@@H](CO)C(=O)N1CCC[C@H]1C(=O)OCOc1ccc([N+](=O)[O-])c2cccnc12 [Compound 30, (S)-(5-nitroquinolin-8-yloxy)methyl 1-((S)-2-acetamido-3-hydroxypropionyl)pyrrolidine-2-carboxylate]
solubility at 24 h [1, 6]: < 0.25 µg/mL
water solubility compared with nitroxoline [1]: increased by several times
solubility at 24 h [1, 7]: 940 µg/mL (≈ 2110 µM)

Compound: COCC(=O)OCOc1ccc([N+](=O)[O-])c2cccnc12 [Compound 31, (5-nitroquinolin-8-yloxy)methyl 2-methoxyacetate]
solubility at 24 h [1, 6]: 10.8 µg/mL (≈ 37.1 µM)

Compound: O=C(CCCCCCCO)OCOc1ccc([N+](=O)[O-])c2cccnc12 [Compound 10, (5-nitroquinolin-8-yloxy)methyl 8-hydroxyoctanoate]
solubility at 24 h [1, 6]: 39.1 µg/mL (≈ 108 µM)
Percentage of the compound remaining in dog liver microsome ([2]; with coenzyme): 0.01%
Percentage of the compound remaining in dog liver microsome ([2]; without coenzyme): 0.04%
Percentage of the compound remaining in rat liver microsome ([3]; with coenzyme): 0.02%
Percentage of the compound remaining in rat liver microsome ([3]; without coenzyme): 0.03%
Percentage of the compound remaining in human liver microsome ([4]; with coenzyme): 0.01%
Percentage of the compound remaining in human liver microsome ([4]; without coenzyme): 0.04%
